Measured values published in patent publication US11000033B2, “Ketone or oxime compound, and herbicide” (NISSAN CHEMICAL CORPORATION, priority 2014, dated 2021).

Tests used:
Assay type in all cases: in vivo
Digitaria ciliaris = experiment: Test Example 4: herbicidal effect by soil treatment (symbol F); details: application herbicide amount 320 g/ha
In short: (§1)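 Seeds were sown in sterilized diluvial soil, covered with about 1.5 cm of soil, and the soil surface was sprayed with a water-diluted emulsion of the compound at a predetermined rate. Plants grew in a greenhouse at 25° C. to 30° C.; effects were scored visually 3 weeks after application.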

Lolium multiflorum Lam. = experiment: Test Example 5: herbicidal effect by foliage application, plastic box (symbol K); details: 320 g/ha, 3 weeks after application
In short: (§2)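 Post-emergence spray; diluvial soil (sterilized), ~1.5 cm seed cover; greenhouse 25–30° C; 14-day-old plants; water-diluted emulsion at predetermined dose; visual score at 3 wk post-treatment.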

Apera spica-venti = experiment: Test Example 5: herbicidal effect by foliage application, plastic box (symbol L); details: 320 g/ha, 3 weeks after application
In short: as §2

Veronica persica = experiment: Test Example 5: herbicidal effect by foliage application, plastic box (symbol R); details: 320 g/ha, 3 weeks after application
In short: as §2

Monochoria vaginalis [1] = experiment: Test Example 1: herbicidal activity, application before weed generation in submerged conditions (symbol C); details: application herbicide amount 320 g/ha
In short: (§3)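 Pre-emergence, paddy conditions: emulsifiable formulation diluted in water, dosed onto floodwater (4 cm depth) on sowing day. Alluvial soil; weeds sown mixed; rice transplanted at 2.5-leaf stage. Greenhouse 25–30 °C, 3 wk. Score 0–5 (5 = ≥90% kill, 0 = ≤5%).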

Amaranthus retroflexus = experiment: Test Example 5: herbicidal effect by foliage application, plastic box (symbol N); details: 320 g/ha, 3 weeks after application
In short: as §2

rapeseed [2] = experiment: Test Example 5: effect on crop by foliage application, plastic box (symbol g); details: 320 g/ha, 3 weeks after application
In short: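 Greenhouse test at 25° C. to 30° C. Seeds of crops and weeds were spot-sown in boxes of sterilized diluvial soil under roughly 1.5 cm soil cover, then grown for foliage treatment.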

Setaria viridis = experiment: Test Example 5: herbicidal effect by foliage application, plastic box (symbol G); details: 320 g/ha, 3 weeks after application
In short: as §2

Scirpus juncoides [3] = experiment: Test Example 1: herbicidal activity, application before weed generation in submerged conditions (symbol B); details: application herbicide amount 320 g/ha
In short: as §3

rapeseed [4] = experiment: Test Example 4: effect on crop by soil treatment (symbol g); details: application herbicide amount 320 g/ha
In short: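 Diluvial soil (sterilized) in boxes; seeds placed spot-wise alongside weed species; ~1.5 cm covering soil. Greenhouse, 25–30° C.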

Scirpus juncoides [5] = experiment: Test Example 2: herbicidal activity, application during weed generation in submerged conditions (symbol B); details: Table 23; application herbicide amount 320 g/ha; grade 0-5 by criteria of Test Example 1
In short: (§4)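 Scoring of herbicidal effect took place 3 weeks after treatment, using the criteria of the earlier test. Treatment was water-surface application of diluted emulsifiable compound at a set dose. Plants were at one- to two-leaf stage in submerged alluvial soil (4 cm depth), greenhouse 25-30° C.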

Monochoria vaginalis [6] = experiment: Test Example 2: herbicidal activity, application during weed generation in submerged conditions (symbol C); details: Table 23; application herbicide amount 320 g/ha; grade 0-5 by criteria of Test Example 1
In short: as §4

[7] = system: Echinochloa crus-galli var. crus-galli; experiment: Test Example 4: herbicidal effect by soil treatment (symbol H); details: application herbicide amount 320 g/ha
In short: as §1

SMILES	Herbicidal effect grade, F: Digitaria ciliaris (Digitaria ciliaris)	K: Lolium multiflorum Lam., herbicidal effect (criteria of Test Example 1) (Lolium multiflorum Lam.)	L: Apera spica-venti, herbicidal effect (criteria of Test Example 1) (Apera spica-venti)	R: Veronica persica, herbicidal effect (criteria of Test Example 1) (Veronica persica)	Herbicidal effect grade, C: Monochoria vaginalis (Monochoria vaginalis [1])	N: Amaranthus retroflexus, herbicidal effect (criteria of Test Example 1) (Amaranthus retroflexus)	g: rapeseed, effect on crop (criteria of Test Example 1) (rapeseed [2])	G: Setaria viridis, herbicidal effect (criteria of Test Example 1) (Setaria viridis)	Herbicidal effect grade, B: Scirpus juncoides (Scirpus juncoides [3])	Effect on crop grade, g: rapeseed (rapeseed [4])	Herbicidal effect grade, B: Scirpus juncoides (Scirpus juncoides [5])	Herbicidal effect grade, C: Monochoria vaginalis (Monochoria vaginalis [6])	Herbicidal effect grade, H: Echinochloa crus-galli var. crus-galli [7]	F: Digitaria ciliaris, herbicidal effect grade (Digitaria ciliaris)	g: rapeseed, effect on crop grade (rapeseed [4])	H: Echinochloa crus-galli var. crus-galli, herbicidal effect grade [7]
CON=C(C)CC1CC(OC(=O)N2CCCCC2)=C(c2c(C)cc(C)cc2OC)C1=O (stereo not drawn) [6-111]	4 (Herbicidal ratio of 70% or higher and lower than 90%)	5 (Herbicidal ratio of 90% or more (almost completely withered))	5 (Herbicidal ratio of 90% or more (almost completely withered))	2 (Herbicidal ratio of 20% or higher and lower than 40%)	2 (Herbicidal ratio of 20% or higher and lower than 40%)	2 (Herbicidal ratio of 20% or higher and lower than 40%)	4 (Herbicidal ratio of 70% or higher and lower than 90%)	5 (Herbicidal ratio of 90% or more (almost completely withered))	5 (Herbicidal ratio of 90% or more (almost completely withered))	0 (Herbicidal ratio of 5% or lower (almost no effect))	3 (Herbicidal ratio of 40% or higher and lower than 70%)	4 (Herbicidal ratio of 70% or higher and lower than 90%)	4 (Herbicidal ratio of 70% or higher and lower than 90%)	–	–	–
CON=C(C)CC1CC(O)=C(c2c(F)cc(C)cc2OC)C1=O (stereo not drawn) [6-108]	5 (Herbicidal ratio of 90% or more (almost completely withered))	5 (Herbicidal ratio of 90% or more (almost completely withered))	5 (Herbicidal ratio of 90% or more (almost completely withered))	2 (Herbicidal ratio of 20% or higher and lower than 40%)	0 (Herbicidal ratio of 5% or lower (almost no effect))	5 (Herbicidal ratio of 90% or more (almost completely withered))	5 (Herbicidal ratio of 90% or more (almost completely withered))	5 (Herbicidal ratio of 90% or more (almost completely withered))	3 (Herbicidal ratio of 40% or higher and lower than 70%)	4 (Herbicidal ratio of 70% or higher and lower than 90%)	1 (Herbicidal ratio of 5% or higher and lower than 20%)	2 (Herbicidal ratio of 20% or higher and lower than 40%)	5 (Herbicidal ratio of 90% or more (almost completely withered))	–	–	–
CON=C(C)CC1CC(O)=C(c2c(F)cc(-c3ccccc3)cc2OC)C1=O (stereo not drawn) [6-107]	5 (Herbicidal ratio of 90% or more (almost completely withered))	5 (Herbicidal ratio of 90% or more (almost completely withered))	5 (Herbicidal ratio of 90% or more (almost completely withered))	4 (Herbicidal ratio of 70% or higher and lower than 90%)	5 (Herbicidal ratio of 90% or more (almost completely withered))	2 (Herbicidal ratio of 20% or higher and lower than 40%)	4 (Herbicidal ratio of 70% or higher and lower than 90%)	5 (Herbicidal ratio of 90% or more (almost completely withered))	5 (Herbicidal ratio of 90% or more (almost completely withered))	4 (Herbicidal ratio of 70% or higher and lower than 90%)	5 (Herbicidal ratio of 90% or more (almost completely withered))	5 (Herbicidal ratio of 90% or more (almost completely withered))	5 (Herbicidal ratio of 90% or more (almost completely withered))	–	–	–
CON=C(C)CC1CC(O)=C(c2c(C)cc(-c3ccc(Cl)cc3F)cc2C)C1=O (stereo not drawn) [6-084]	–	5 (Herbicidal ratio of 90% or more (almost completely withered))	5 (Herbicidal ratio of 90% or more (almost completely withered))	4 (Herbicidal ratio of 70% or higher and lower than 90%)	0 (Herbicidal ratio of 5% or lower (almost no effect))	3 (Herbicidal ratio of 40% or higher and lower than 70%)	4 (Herbicidal ratio of 70% or higher and lower than 90%)	5 (Herbicidal ratio of 90% or more (almost completely withered))	3 (Herbicidal ratio of 40% or higher and lower than 70%)	–	3 (Herbicidal ratio of 40% or higher and lower than 70%)	0 (Herbicidal ratio of 5% or lower (almost no effect))	–	5 (Herbicidal ratio of 90% or more (almost completely withered))	1 (Herbicidal ratio of 5% or higher and lower than 20%)	5 (Herbicidal ratio of 90% or more (almost completely withered))
CON=C(C)C(C)C1CC(O)=C(c2c(C)cc(Br)cc2OC)C1=O (stereo not drawn) [6-113]	5 (Herbicidal ratio of 90% or more (almost completely withered))	5 (Herbicidal ratio of 90% or more (almost completely withered))	5 (Herbicidal ratio of 90% or more (almost completely withered))	0 (Herbicidal ratio of 5% or lower (almost no effect))	0 (Herbicidal ratio of 5% or lower (almost no effect))	0 (Herbicidal ratio of 5% or lower (almost no effect))	4 (Herbicidal ratio of 70% or higher and lower than 90%)	5 (Herbicidal ratio of 90% or more (almost completely withered))	0 (Herbicidal ratio of 5% or lower (almost no effect))	1 (Herbicidal ratio of 5% or higher and lower than 20%)	0 (Herbicidal ratio of 5% or lower (almost no effect))	3 (Herbicidal ratio of 40% or higher and lower than 70%)	5 (Herbicidal ratio of 90% or more (almost completely withered))	–	–	–
CON=C(C)CC1CC(OC(=O)N2CCOCC2)=C(c2c(C)cc(C)cc2OC)C1=O (stereo not drawn) [6-094]	5 (Herbicidal ratio of 90% or more (almost completely withered))	5 (Herbicidal ratio of 90% or more (almost completely withered))	5 (Herbicidal ratio of 90% or more (almost completely withered))	4 (Herbicidal ratio of 70% or higher and lower than 90%)	3 (Herbicidal ratio of 40% or higher and lower than 70%)	0 (Herbicidal ratio of 5% or lower (almost no effect))	4 (Herbicidal ratio of 70% or higher and lower than 90%)	5 (Herbicidal ratio of 90% or more (almost completely withered))	5 (Herbicidal ratio of 90% or more (almost completely withered))	4 (Herbicidal ratio of 70% or higher and lower than 90%)	2 (Herbicidal ratio of 20% or higher and lower than 40%)	1 (Herbicidal ratio of 5% or higher and lower than 20%)	5 (Herbicidal ratio of 90% or more (almost completely withered))	–	–	–
